# Laboratory results as given in patent US7964191B2, “Compositions and methods for the treatment of ophthalmic disease” (Allergan, Inc., priority 2006, dated 2011).
# System: diabetic retinopathy
# Assay: Treatment of a patient with proliferative (left eye) and non-proliferative (right eye) diabetic retinopathy
# Format: in vivo, human
# Conditions: Example 10
# Method: A person complains of vision loss in the left eye. The patient reports an onset of Type II diabetes, and has been under treatment with metformin hydrochloride for 10 years.
# The patient is given an intravitreal injection comprising 150 μl of a solution of hyaluronic acid in which biodegradable PLGA microspheres (mean particle diameter of about 40 μm; lactide to glycolide ratio 75:25) are suspended. See U.S. patent application Ser. No. 11/368,845, filed Mar. 6, 2006, incorporated by reference herein in its entirety. Approximate weight of microspheres per dose was 20 mg. In addition to the PLGA polymer, the microspheres comprise approximately 5% by weight of an SDF-1α derivative that comprises a disulfide-linked dimer comprising two identical peptides, with each peptide comprising amino acids 1-9 of SDF-1 (these positions correspond to amino acids 22-47 of SEQ ID NO: 4, 5, and 6) with glycine substituted for proline in each position 2 (corresponding to position 23 of SEQ ID NO: 4, 5, and 6).
# The patient's visual acuity (and retinal condition under dilation) are monitored every two weeks for 8 weeks.
# The patient of Example 9 is treated by subconjunctival injection in each eye (100 μl volume in hyaluronic acid solution) of a single fibrous monolithic PLGA intraocular implant (approximately 120 μg; diameter approximately 3 mm) comprising 50% by weight of a CXCR4-inhibitory compound: N-[(S)-1-(1-naphthyl)ethyl]-5-(2-methylbenzyl)amino-2-(S)-[4-[N-(imidazole-2-ylmethyl)aminomethyl]benzoyl]aminopentanoylamide (see Yamzaki et al., U.S. Publication No. 2004/0254221.
# After 8 weeks visual acuity is tested, and has improved by 2 lines in each eye.
# The patient of Example 9 is administered an intravitreal injection in each eye comprising 150 μl of a solution of hyaluronic acid in which biodegradable PLGA microspheres (mean particle diameter of about 40 μm; lactide to glycolide ratio 75:25) are suspended. Approximate weight of microspheres per dose was 20 mg. […]
structure (smiles),measurement,setting,value
Cc1ccccc1CNCCC[C@H](NC(=O)c1ccc(CNCc2ncc[nH]2)cc1)C(=O)N[C@@H](C)c1cccc2ccccc12 [N-[(S)-1-(1-naphthyl)ethyl]-5-(2-methylbenzyl)amino-2-(S)-[4-[N-(imidazole-2-ylmethyl)aminomethyl]benzoyl]aminopentanoylamide],fluorescein angiography: leakage of blood into the retina,after 6 weeks,does not reveal any leakage of blood into the retina
same,"improvement in visual acuity, each eye",after 8 weeks,2 lines
same,macular edema,"subconjunctival PLGA implant, 50% by weight compound, each eye, after 6 weeks",barely observable
